Measurements taken from patent publication US20240398828A1, “HETERO-ATOM CONTAINING COMPOUNDS AND USES THEREOF” (Kumquat Biosciences Inc., priority 2021, published 2024).

Legend:
[1] = target: T1, PTPN2 (i.e., TC-PTP) (Homo sapiens, UniProt P17706); test: Phosphatase activity assay (DiFMUP substrate), PTPN2; type: biochemical; details: compounds binned ≤1 uM or >1 uM
T1 sequence (P17706 1-415): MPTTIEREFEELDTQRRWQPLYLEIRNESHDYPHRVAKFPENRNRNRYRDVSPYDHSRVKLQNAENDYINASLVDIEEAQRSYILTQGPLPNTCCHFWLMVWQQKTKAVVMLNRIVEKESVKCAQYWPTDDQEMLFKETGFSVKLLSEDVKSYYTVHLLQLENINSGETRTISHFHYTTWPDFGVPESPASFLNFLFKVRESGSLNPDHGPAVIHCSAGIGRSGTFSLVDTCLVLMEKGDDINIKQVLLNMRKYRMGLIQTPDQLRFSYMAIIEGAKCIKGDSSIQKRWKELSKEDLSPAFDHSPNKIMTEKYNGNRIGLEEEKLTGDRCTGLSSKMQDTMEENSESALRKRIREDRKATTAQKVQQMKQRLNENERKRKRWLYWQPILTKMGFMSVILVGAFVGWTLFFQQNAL
Outline: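 First, serially diluted inhibitor is mixed about 2 minutes with enzyme in pH 7.5 HEPES/NaCl/EDTA/DTT/Tween-20 buffer. Next, DiFMUP is added at the enzyme's Km, approximately 45 μM for PTPN2. Finally, DiFMU appearance is read continuously at room temperature and rates are fitted for IC50.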

[2] = target: T2, PTPN1 (i.e., PTP1B) (Homo sapiens, UniProt P18031); test: Phosphatase activity assay (DiFMUP substrate), PTP1B; type: biochemical; details: compounds binned ≤1 uM or >1 uM
T2 sequence (P18031 1-435): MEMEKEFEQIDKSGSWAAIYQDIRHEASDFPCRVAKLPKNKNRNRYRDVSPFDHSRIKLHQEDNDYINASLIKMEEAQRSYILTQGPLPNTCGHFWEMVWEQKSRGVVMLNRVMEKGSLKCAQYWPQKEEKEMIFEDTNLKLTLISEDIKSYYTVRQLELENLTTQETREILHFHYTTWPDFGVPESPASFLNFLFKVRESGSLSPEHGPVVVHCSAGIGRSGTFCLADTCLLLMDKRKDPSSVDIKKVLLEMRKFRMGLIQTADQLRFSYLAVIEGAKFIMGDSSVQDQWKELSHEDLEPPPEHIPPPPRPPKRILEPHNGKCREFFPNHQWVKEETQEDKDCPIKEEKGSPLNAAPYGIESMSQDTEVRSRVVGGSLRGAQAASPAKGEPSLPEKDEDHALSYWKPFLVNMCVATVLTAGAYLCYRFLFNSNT
Outline: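 Continuous fluorogenic readout of DiFMUP dephosphorylation at room temperature, substrate set at Km for each phosphatase (about 45 μM in the PTPN2 assay). The buffer contains 1 mM DTT and 0.001% Tween-20, pH 7.5.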

IC50 [1]	IC50 [2]	SMILES
≤ 1000 nM	≤ 1000 nM	N#CCCc1cc(-c2ccc(O)c(N3CC(=O)NS3(=O)=O)c2F)n[nH]1 [Compound 373, 3-(3-(3-(1,1-dioxido-4-oxo-1,2,5-thiadiazolidin-2-yl)-2-fluoro-4-hydroxyphenyl)-1H-pyrazol-5-yl)propanenitrile]
≤ 1000 nM	≤ 1000 nM	N#C[C@H]1CC[C@H](n2cc(-c3ccc(O)c(N4CC(=O)NS4(=O)=O)c3F)cn2)CC1 [Compound 305, (1r,4r)-4-(4-(3-(1,1-dioxido-4-oxo-1,2,5-thiadiazolidin-2-yl)-2-fluoro-4-hydroxyphenyl)-1H-pyrazol-1-yl)cyclohexane-1-carbonitrile]
≤ 1000 nM	≤ 1000 nM	O=C1CN(c2c(O)ccc(C3=CCN(CC4CCCCC4)C3)c2F)S(=O)(=O)N1 [Compound 267, 5-(3-(1-(cyclohexylmethyl)-2,5-dihydro-1H-pyrrol-3-yl)-2-fluoro-6-hydroxyphenyl)-1,2,5-thiadiazolidin-3-one 1,1-dioxide]
≤ 1000 nM	≤ 1000 nM	CC1CC(c2ccc(O)c(N3CC(=O)NS3(=O)=O)c2F)CN1 (stereo not shown) [Compound 407, 5-(2-fluoro-6-hydroxy-3-(5-methylpyrrolidin-3-yl)phenyl)-1,2,5-thiadiazolidin-3-one 1,1-dioxide]
≤ 1000 nM	≤ 1000 nM	CC(C)C1C=C(c2ccc(O)c(N3CC(=O)NS3(=O)=O)c2F)CN1 (stereo not shown) [Compound 482, 5-(2-fluoro-6-hydroxy-3-(5-isopropyl-2,5-dihydro-1H-pyrrol-3-yl)phenyl)-1,2,5-thiadiazolidin-3-one 1,1-dioxide]
≤ 1000 nM	≤ 1000 nM	O=C1CN(c2c(O)ccc(-c3cc(C4CC4)n(C(F)F)n3)c2F)S(=O)(=O)N1 [Compound 518, 5-(3-(5-cyclopropyl-1-(difluoromethyl)-1H-pyrazol-3-yl)-2-fluoro-6-hydroxyphenyl)-1,2,5-thiadiazolidin-3-one 1,1-dioxide]
≤ 1000 nM	≤ 1000 nM	O=C1CN(c2c(O)ccc(-c3cnn(C4CCCCCC4)c3)c2F)S(=O)(=O)N1 [Compound 360, 5-(3-(1-cycloheptyl-1H-pyrazol-4-yl)-2-fluoro-6-hydroxyphenyl)-1,2,5-thiadiazolidin-3-one 1,1-dioxide]
≤ 1000 nM	≤ 1000 nM	COc1cccc(Cn2cc(-c3ccc(O)c(N4CC(=O)NS4(=O)=O)c3F)cn2)c1 [Compound 127, 5-(2-fluoro-6-hydroxy-3-(1-(3-methoxybenzyl)-1H-pyrazol-4-yl)phenyl)-1,2,5-thiadiazolidin-3-one 1,1-dioxide]
≤ 1000 nM	≤ 1000 nM	Nc1nc2ccc(-c3ccc(O)c(N4CC(=O)NS4(=O)=O)c3F)cc2s1 [Compound 135, 5-(3-(2-aminobenzo[d]thiazol-6-yl)-2-fluoro-6-hydroxyphenyl)-1,2,5-thiadiazolidin-3-one 1,1-dioxide]
≤ 1000 nM	≤ 1000 nM	CCn1nc(-c2ccc(O)c(N3CC(=O)NS3(=O)=O)c2F)cc1C1CC1 [Compound 331, 5-(3-(5-cyclopropyl-1-ethyl-1H-pyrazol-3-yl)-2-fluoro-6-hydroxyphenyl)-1,2,5-thiadiazolidin-3-one 1,1-dioxide]
≤ 1000 nM	≤ 1000 nM	O=C1CN(c2c(O)ccc(-c3ccc(NS(=O)(=O)C4CC4)c(F)c3)c2F)S(=O)(=O)N1 [Compound 384, N-(3′-(1,1-dioxido-4-oxo-1,2,5-thiadiazolidin-2-yl)-2′,3-difluoro-4′-hydroxy-[1,1′-biphenyl]-4-yl)cyclopropanesulfonamide]
≤ 1000 nM	≤ 1000 nM	CC(C)n1cc(-c2ccc(O)c(N3CC(=O)NS3(=O)=O)c2F)c(F)n1 [Compound 467, 5-(2-fluoro-3-(3-fluoro-1-isopropyl-1H-pyrazol-4-yl)-6-hydroxyphenyl)-1,2,5-thiadiazolidin-3-one 1,1-dioxide]
≤ 1000 nM	≤ 1000 nM	O=C1CN(c2c(O)ccc(-c3cnn(C(=O)N4CC(F)(F)C4)c3)c2F)S(=O)(=O)N1 [Compound 505, 5-(3-(1-(3,3-difluoroazetidine-1-carbonyl)-1H-pyrazol-4-yl)-2-fluoro-6-hydroxyphenyl)-1,2,5-thiadiazolidin-3-one 1,1-dioxide]
≤ 1000 nM	≤ 1000 nM	O=C1CN(c2c(O)ccc(-c3coc(-c4ccccc4)n3)c2F)S(=O)(=O)N1 [Compound 173, 5-(2-fluoro-6-hydroxy-3-(2-phenyloxazol-4-yl)phenyl)-1,2,5-thiadiazolidin-3-one 1,1-dioxide]
≤ 1000 nM	≤ 1000 nM	CC(C)CCc1ncc(-c2ccc(O)c(N3CC(=O)NS3(=O)=O)c2F)[nH]1 [Compound 334, 5-(2-fluoro-6-hydroxy-3-(2-isopentyl-1H-imidazol-5-yl)phenyl)-1,2,5-thiadiazolidin-3-one 1,1-dioxide]
≤ 1000 nM	≤ 1000 nM	O=C1CN(c2c(O)ccc(-c3ccc(N4CCCC4)nc3)c2F)S(=O)(=O)N1 [Compound 177, 5-(2-fluoro-6-hydroxy-3-(6-(pyrrolidin-1-yl)pyridin-3-yl)phenyl)-1,2,5-thiadiazolidin-3-one 1,1-dioxide]
≤ 1000 nM	≤ 1000 nM	O=C1CN(c2c(O)ccc(-c3cn(CC4CC4)nc3F)c2F)S(=O)(=O)N1 [Compound 233, 5-(3-(1-(cyclopropylmethyl)-3-fluoro-1H-pyrazol-4-yl)-2-fluoro-6-hydroxyphenyl)-1,2,5-thiadiazolidin-3-one 1,1-dioxide]
≤ 1000 nM	≤ 1000 nM	O=C1CN(c2c(O)ccc(-c3cnn(Cc4cncc(F)c4)c3)c2F)S(=O)(=O)N1 [Compound 111, 5-(2-fluoro-3-(1-((5-fluoropyridin-3-yl)methyl)-1H-pyrazol-4-yl)-6-hydroxyphenyl)-1,2,5-thiadiazolidin-3-one 1,1-dioxide]
≤ 1000 nM	≤ 1000 nM	Cc1cc(-c2ccc(O)c(N3CC(=O)NS3(=O)=O)c2F)[nH]n1 [Compound 183, 5-(2-fluoro-6-hydroxy-3-(3-methyl-1H-pyrazol-5-yl)phenyl)-1,2,5-thiadiazolidin-3-one 1,1-dioxide]
≤ 1000 nM	≤ 1000 nM	COCCS(=O)(=O)Nc1ccc(-c2ccc(O)c(N3CC(=O)NS3(=O)=O)c2F)cc1 [Compound 443, N-(3′-(1,1-dioxido-4-oxo-1,2,5-thiadiazolidin-2-yl)-2′-fluoro-4′-hydroxy-[1,1′-biphenyl]-4-yl)-2-methoxyethane-1-sulfonamide]
≤ 1000 nM	≤ 1000 nM	O=C1CN(c2c(O)ccc(-c3ccc(NC(=O)C4CC4)cc3)c2F)S(=O)(=O)N1 [Compound 395, N-(3′-(1,1-dioxido-4-oxo-1,2,5-thiadiazolidin-2-yl)-2′-fluoro-4′-hydroxy-[1,1′-biphenyl]-4-yl)cyclopropanecarboxamide]
≤ 1000 nM	≤ 1000 nM	O=C1C=C(c2c(O)ccc(-c3cn(CC4CCCCC4)cn3)c2F)S(=O)(=O)N1 [Compound 277, 5-(3-(1-(cyclohexylmethyl)-1H-imidazol-4-yl)-2-fluoro-6-hydroxyphenyl)isothiazol-3(2H)-one 1,1-dioxide]
≤ 1000 nM	≤ 1000 nM	COc1ccccc1-n1cnc(-c2ccc(O)c(N3CC(=O)NS3(=O)=O)c2F)c1 [Compound 346, 5-(2-fluoro-6-hydroxy-3-(1-(2-methoxyphenyl)-1H-imidazol-4-yl)phenyl)-1,2,5-thiadiazolidin-3-one 1,1-dioxide]
≤ 1000 nM	≤ 1000 nM	CN(C)C(=O)n1cc(-c2ccc(O)c(N3CC(=O)NS3(=O)=O)c2F)cn1 [Compound 532, 4-(3-(1,1-dioxido-4-oxo-1,2,5-thiadiazolidin-2-yl)-2-fluoro-4-hydroxyphenyl)-N,N-dimethyl-1H-pyrazole-1-carboxamide]
≤ 1000 nM	≤ 1000 nM	O=C1CN(c2c(O)ccc(-c3cnn(C4CC4)c3)c2Cl)S(=O)(=O)N1 [Compound 260, 5-(2-chloro-3-(1-cyclopropyl-1H-pyrazol-4-yl)-6-hydroxyphenyl)-1,2,5-thiadiazolidin-3-one 1,1-dioxide]
≤ 1000 nM	≤ 1000 nM	O=C1CN(c2c(O)ccc(C3CCN(S(=O)(=O)C4CC4)C3)c2F)S(=O)(=O)N1 (stereo not shown) [Compound 359, 5-(3-(1-(cyclopropylsulfonyl)pyrrolidin-3-yl)-2-fluoro-6-hydroxyphenyl)-1,2,5-thiadiazolidin-3-one 1,1-dioxide]
